Source: US20240368640A1, “METHODS OF PURIFYING CANNABINOIDS” (AMYRIS, INC., priority 2021, published 2024)
“Also recorded” adds a separate entry of the source.

What was measured:
[1] = Visual assessment of CBDA solubility in overlay oils; format: physicochemical; details: CBDA as hemp oil with 50% CBDA, target concentration greater than 50 g/L
Protocol: Visual appearances of solutions containing CBDA (as hemp oil with 50% CBDA) were assessed for JARCOL™ I-16, soybean oil, castor oil, ESTEREX™ A 51, sunflower oil, DRAKEOL® 19, and DURASYN® 164. A target CBD concentration of greater than 50 g/L was desired for this set of experiments. Upon visual inspection, it was determined that CBDA was soluble in JARCOL™ I-16, soybean oil, castor oil, ESTEREX™ A 51, and sunflower oil, but was insoluble in DRAKEOL® 19 and DURASYN® 164 at the target concentration. Insolubility was evidenced by the presence of precipitates in solutions of DRAKEOL® 19 or DURASYN® 164 (FIG. 9).

[2] = system: wild-type yeast (strain Y46850); assay: Growth of wild-type yeast in culture media containing an overlay oil (optical density); format: cell-based, S. cerevisiae
Protocol: The ability of yeast cells (S. cerevisiae) to grow normally in culture media containing an overlay oil was assessed. Wild-type yeast (strain Y46850) was cultured in the presence of soybean oil, sunflower oil, safflower oil, castor oil, or JARCOL™ I-16. Cell growth was measured by assessing the optical density (OD) of the yeast culture suspensions in three independent experiments (SF1, SF2, and SF3) (FIGS. 1-3).

[3] = Solubility of hexanoate in soybean oil by gas chromatography (GC-FID); details: oil or lipid
[4] = oil/hemp oil 10:1 v/v, visual inspection
[5] = oil/hemp oil 10:1 v/v, visual inspection (precipitates)

C=C(C)[C@@H]1CCC(C)=C[C@H]1c1c(O)cc(CCCCC)c(C(=O)O)c1O [CBDA, cannabidiolic acid]
Solubility of CBDA in JARCOL I-16 [1, 4]: soluble; also recorded: good solubility | Solubility of CBDA in castor oil [1, 4]: soluble; also recorded: good solubility | Solubility of CBDA in soybean oil [1, 4]: soluble; also recorded: good solubility | Solubility of CBDA in DRAKEOL 19 [1, 5]: insoluble; also recorded: lower solubility | Solubility of CBDA in DURASYN 164 [1, 5]: insoluble; also recorded: lower solubility | Solubility of CBDA in ESTEREX A 51 ([1]; visual inspection): soluble | Solubility of CBDA in sunflower oil ([1]; visual inspection): soluble

CCCCCCCCC(CO)CCCCCC (centres unmarked) [JARCOL™ I-16]
Cell growth (optical density) versus control (no oil) ([2]; flask experiment SF2, strain Y46850 (FIG. 2)): not significantly different | Cell growth (optical density) versus control (no oil) ([2]; flask experiment SF3, strain Y46850 (FIG. 3)): not significantly different | Cell growth (optical density) versus control (no oil) ([2]; wild-type yeast strain Y46850 cultured with overlay oil, three independent experiments SF1, SF2, SF3): not significantly different

CCCCCC(=O)O [hexanoate]
solubility [3]: ≤ 185 mg/mL
